According to patent US6716822B2, “Therapeutic agent for ischemia which inhibits apoptosis under ischemic condition” (priority 2000, dated 2004):

How the values were obtained:
Sprague-Dawley rats = experiment: Effect of antibiotics on ischemic cells: rat left anterior descending artery ligature, infarct/ischemic area by Evans blue/TTC staining; assay type: in vivo; conditions: 45 mg/kg peritoneally, LAD ligature 2 hours
[1] = Acute toxicity test, subcutaneous injection; conditions: mouse, in vivo, sc, male C57BL/6 mice, dead mice counted through 1-7 days
From the text: All antibiotics used in the present invention, except for an aminoglycoside antibiotic of geneticin, were not subject to acute toxicity tests since they have been clinically approved for their safety. In case of geneticin, after subcutaneously injecting geneticin into male C57BL/6 mice, dead mice were counted through 1-7 days.

Row | Compound | AR/LV (percentage of ischemic area per cross-sectional area of heart) (Sprague-Dawley rats) | IS/(IS + AR) (percentage of infarct area per sum of infarct and ischemic area) (Sprague-Dawley rats) | IS/LV (percentage of infarct area per cross-sectional area of heart) (Sprague-Dawley rats) | LD50 [1]
1 | C[C@H]1c2cccc(O)c2C(=O)C2=C(O)[C@]3(O)C(=O)C(C(N)=O)=C(O)[C@@H](N(C)C)[C@@H]3[C@@H](O)[C@@H]21 [doxycycline] | 41.8 ± 4.3% | 29.3 ± 4.2% | 16.9 ± 2.5% | 
2 | CN[C@@H]1[C@@H](O)[C@@H](O[C@@H]2[C@@H](O)[C@H](O[C@H]3O[C@H]([C@@H](C)O)[C@@H](O)[C@H](O)[C@H]3N)[C@@H](N)C[C@H]2N)OC[C@]1(C)O [geneticin] | 40.0 ± 4.1% | 24.6 ± 2.1% | 12.5 ± 1.8% | ~3800 mg/kg
